Reference: ChEMBL document CHEMBL1201862, “PubChem BioAssay data set” (2004)
Active and inactive are the calls of the source.

Legend:
[1] = target: E3 ubiquitin-protein ligase Mdm2 (Homo sapiens, UniProt Q00987); experiment: MDM2-luc reporter signal enhancers, multi-concentration potency testing, MDM2 ubiquitin-protein ligase inhibitor program, whole-cell format, luminescence detection, 384-well microplate (AID 1394); type: functional;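 note: MDM2 E3 inhibitors raise luminescence so EC50 is for signal enhancement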
Chain of E3 ubiquitin-protein ligase Mdm2 (Q00987 whole entry): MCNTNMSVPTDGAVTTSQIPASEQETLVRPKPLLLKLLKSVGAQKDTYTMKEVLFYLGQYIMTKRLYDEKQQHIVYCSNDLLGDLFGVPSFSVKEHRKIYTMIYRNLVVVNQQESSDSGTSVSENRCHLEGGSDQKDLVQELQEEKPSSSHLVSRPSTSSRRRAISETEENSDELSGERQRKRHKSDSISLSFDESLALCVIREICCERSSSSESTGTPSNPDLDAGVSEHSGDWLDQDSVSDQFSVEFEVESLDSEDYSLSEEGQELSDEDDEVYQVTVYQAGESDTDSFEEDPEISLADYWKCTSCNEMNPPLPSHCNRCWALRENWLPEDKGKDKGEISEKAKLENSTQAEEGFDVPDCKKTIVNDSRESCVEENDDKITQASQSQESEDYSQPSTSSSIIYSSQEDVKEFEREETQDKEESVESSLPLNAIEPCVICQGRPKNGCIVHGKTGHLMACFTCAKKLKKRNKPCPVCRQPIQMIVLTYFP

[2] = HEK-293T viability loss after treatment – luminescence, T-cell screen hits, cytotoxicity control for TCR NF-kB inhibitor project, dose response (AID 489026); type: functional, cell-based;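 note: cells exposed to compound about 14 hours before the viability readout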
[3] = target: DNA damage-inducible transcript 3 protein (Mus musculus, UniProt P35639); type: functional, Cricetulus griseus
Chain of DNA damage-inducible transcript 3 protein (P35639 whole entry): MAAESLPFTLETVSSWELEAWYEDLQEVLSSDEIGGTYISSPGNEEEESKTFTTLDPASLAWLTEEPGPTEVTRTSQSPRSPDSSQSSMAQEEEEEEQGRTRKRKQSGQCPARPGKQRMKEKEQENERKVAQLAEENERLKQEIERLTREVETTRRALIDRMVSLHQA

INS1 = experiment: INS-1E survival protection against cytokine death – cell-based, luminescence, retest, dose response (AID 449756); type: functional; settings: Rattus norvegicus;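 note: cell death triggered by IL-1 beta plus TNF-alpha plus IFN-gamma mixture; protective hits raise ATP signal compared with cytokine alone wells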
[4] = target: Glyceraldehyde-3-phosphate dehydrogenase (Homo sapiens, UniProt P04406)
Chain of Glyceraldehyde-3-phosphate dehydrogenase (P04406 whole entry): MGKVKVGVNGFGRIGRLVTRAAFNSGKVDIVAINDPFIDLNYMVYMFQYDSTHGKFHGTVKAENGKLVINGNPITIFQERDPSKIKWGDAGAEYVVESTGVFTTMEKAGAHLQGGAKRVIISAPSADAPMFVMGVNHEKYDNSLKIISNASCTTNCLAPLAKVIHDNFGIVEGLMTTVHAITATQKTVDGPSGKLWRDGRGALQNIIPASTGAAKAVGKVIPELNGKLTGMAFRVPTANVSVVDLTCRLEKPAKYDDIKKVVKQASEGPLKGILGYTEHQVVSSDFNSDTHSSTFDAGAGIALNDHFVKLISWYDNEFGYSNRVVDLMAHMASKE

[5] = target: Alkaline phosphatase, placental type (Homo sapiens, UniProt P05187); experiment: human placental alkaline phosphatase inhibition – biochemical, luminescence, confirmation (AID 1512); type: functional
Chain of Alkaline phosphatase, placental type (P05187 whole entry): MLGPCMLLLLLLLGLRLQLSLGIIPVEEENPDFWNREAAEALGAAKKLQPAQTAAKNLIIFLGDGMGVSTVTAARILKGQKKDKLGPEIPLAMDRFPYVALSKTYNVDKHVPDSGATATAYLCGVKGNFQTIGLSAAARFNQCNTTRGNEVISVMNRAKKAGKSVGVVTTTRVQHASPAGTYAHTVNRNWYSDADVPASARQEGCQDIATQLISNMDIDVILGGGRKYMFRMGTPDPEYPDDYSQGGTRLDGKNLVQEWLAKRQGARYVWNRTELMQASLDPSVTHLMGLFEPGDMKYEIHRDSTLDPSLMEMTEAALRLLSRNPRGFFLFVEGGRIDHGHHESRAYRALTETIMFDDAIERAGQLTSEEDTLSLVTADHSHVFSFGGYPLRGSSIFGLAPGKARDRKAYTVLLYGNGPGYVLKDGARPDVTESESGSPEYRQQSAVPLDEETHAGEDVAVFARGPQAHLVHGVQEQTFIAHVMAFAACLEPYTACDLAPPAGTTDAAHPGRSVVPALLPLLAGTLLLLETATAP

[6] = target: T1, Alkaline phosphatase, tissue-nonspecific isozyme (Homo sapiens, UniProt P05186); experiment: potency against alkaline phosphatase TNAP – biochemical, luminescent, dose response, SAR follow-up (AID 1056)
T1 sequence (P05186 whole entry): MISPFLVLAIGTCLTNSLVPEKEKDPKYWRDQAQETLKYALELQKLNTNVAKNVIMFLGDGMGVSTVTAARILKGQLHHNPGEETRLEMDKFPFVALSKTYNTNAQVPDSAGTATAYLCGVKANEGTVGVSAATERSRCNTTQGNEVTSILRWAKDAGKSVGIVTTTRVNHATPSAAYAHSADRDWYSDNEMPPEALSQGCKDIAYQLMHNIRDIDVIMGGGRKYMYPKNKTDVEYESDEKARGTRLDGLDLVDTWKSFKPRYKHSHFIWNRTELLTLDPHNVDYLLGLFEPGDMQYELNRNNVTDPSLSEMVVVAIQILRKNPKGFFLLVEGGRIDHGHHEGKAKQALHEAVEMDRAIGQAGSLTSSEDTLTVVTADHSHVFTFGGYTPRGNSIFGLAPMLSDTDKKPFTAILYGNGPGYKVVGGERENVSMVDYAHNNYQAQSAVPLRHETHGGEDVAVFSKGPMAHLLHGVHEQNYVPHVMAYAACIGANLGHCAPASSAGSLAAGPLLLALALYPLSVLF

[7] = target: Induced myeloid leukemia cell differentiation protein Mcl-1 (Homo sapiens, UniProt Q07820); type: functional
Chain of Induced myeloid leukemia cell differentiation protein Mcl-1 (Q07820 whole entry): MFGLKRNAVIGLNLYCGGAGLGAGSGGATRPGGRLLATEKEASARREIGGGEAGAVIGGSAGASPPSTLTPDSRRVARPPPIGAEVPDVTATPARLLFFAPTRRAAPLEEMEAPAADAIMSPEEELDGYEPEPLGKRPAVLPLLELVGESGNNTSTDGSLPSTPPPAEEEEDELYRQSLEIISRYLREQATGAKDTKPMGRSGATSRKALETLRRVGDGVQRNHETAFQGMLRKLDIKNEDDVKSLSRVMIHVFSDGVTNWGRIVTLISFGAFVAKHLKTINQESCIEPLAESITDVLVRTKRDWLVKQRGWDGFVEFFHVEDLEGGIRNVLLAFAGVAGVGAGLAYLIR

[8] = target: Glucose-6-phosphate 1-dehydrogenase (Homo sapiens, UniProt P11413); experiment: inhibition of Homo sapiens G6PD, dose series – biochemical, fluorescence, selectivity assay for P. falciparum G6PD inhibitor project, dose response (AID 504792); type: functional
Chain of Glucose-6-phosphate 1-dehydrogenase (P11413 whole entry): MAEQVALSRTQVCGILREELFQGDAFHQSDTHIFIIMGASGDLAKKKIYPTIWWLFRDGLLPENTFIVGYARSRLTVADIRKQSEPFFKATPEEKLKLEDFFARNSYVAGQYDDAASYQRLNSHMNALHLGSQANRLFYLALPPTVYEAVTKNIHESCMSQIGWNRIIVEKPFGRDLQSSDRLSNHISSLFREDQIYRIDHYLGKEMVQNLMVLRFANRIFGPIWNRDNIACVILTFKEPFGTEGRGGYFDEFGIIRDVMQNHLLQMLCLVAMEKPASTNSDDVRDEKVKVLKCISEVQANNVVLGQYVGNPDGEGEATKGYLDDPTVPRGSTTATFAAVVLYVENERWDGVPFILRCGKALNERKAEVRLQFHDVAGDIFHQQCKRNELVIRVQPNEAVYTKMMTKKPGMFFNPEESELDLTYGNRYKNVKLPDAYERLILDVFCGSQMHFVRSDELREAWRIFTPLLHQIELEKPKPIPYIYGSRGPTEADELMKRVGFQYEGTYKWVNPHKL

Hexokinase HKDC1 = target: T2, Hexokinase HKDC1 (Homo sapiens, UniProt Q2TB90); experiment: inhibition of HKDC1 glucose phosphorylation – biochemical, W721R variant, dose response (AID 504729); type: functional
T2 sequence (Q2TB90 whole entry): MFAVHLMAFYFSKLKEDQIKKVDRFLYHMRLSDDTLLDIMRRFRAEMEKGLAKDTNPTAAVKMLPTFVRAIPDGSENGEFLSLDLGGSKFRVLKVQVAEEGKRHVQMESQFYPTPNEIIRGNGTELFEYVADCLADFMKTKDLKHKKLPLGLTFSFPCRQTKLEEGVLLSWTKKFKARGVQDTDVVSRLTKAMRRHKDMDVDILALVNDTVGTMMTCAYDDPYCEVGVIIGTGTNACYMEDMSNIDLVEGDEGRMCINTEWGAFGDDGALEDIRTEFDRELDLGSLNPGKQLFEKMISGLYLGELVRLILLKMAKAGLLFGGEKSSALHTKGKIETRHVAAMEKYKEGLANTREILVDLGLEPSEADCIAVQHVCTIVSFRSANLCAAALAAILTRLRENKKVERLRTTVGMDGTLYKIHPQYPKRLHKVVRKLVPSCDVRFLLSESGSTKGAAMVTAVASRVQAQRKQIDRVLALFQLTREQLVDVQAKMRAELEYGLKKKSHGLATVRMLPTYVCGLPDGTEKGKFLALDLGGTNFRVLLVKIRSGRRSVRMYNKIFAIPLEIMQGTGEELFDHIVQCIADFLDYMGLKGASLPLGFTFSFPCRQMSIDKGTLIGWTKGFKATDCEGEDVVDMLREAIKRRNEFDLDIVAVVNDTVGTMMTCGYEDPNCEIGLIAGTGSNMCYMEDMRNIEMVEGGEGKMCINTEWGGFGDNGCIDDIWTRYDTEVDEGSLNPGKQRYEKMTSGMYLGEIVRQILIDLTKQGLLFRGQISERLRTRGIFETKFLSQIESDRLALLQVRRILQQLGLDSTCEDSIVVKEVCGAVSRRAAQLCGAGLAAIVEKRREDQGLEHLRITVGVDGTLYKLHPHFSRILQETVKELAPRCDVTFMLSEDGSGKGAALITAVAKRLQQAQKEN

[9] = target: T3, Replicative DNA helicase DnaB (Mycobacterium tuberculosis, UniProt P9WMR3); experiment: DnaB intein splicing inhibitors, dose response, biochemical, cell-free fluorescence (AID 449749); type: functional
T3 sequence (P9WMR3 whole entry): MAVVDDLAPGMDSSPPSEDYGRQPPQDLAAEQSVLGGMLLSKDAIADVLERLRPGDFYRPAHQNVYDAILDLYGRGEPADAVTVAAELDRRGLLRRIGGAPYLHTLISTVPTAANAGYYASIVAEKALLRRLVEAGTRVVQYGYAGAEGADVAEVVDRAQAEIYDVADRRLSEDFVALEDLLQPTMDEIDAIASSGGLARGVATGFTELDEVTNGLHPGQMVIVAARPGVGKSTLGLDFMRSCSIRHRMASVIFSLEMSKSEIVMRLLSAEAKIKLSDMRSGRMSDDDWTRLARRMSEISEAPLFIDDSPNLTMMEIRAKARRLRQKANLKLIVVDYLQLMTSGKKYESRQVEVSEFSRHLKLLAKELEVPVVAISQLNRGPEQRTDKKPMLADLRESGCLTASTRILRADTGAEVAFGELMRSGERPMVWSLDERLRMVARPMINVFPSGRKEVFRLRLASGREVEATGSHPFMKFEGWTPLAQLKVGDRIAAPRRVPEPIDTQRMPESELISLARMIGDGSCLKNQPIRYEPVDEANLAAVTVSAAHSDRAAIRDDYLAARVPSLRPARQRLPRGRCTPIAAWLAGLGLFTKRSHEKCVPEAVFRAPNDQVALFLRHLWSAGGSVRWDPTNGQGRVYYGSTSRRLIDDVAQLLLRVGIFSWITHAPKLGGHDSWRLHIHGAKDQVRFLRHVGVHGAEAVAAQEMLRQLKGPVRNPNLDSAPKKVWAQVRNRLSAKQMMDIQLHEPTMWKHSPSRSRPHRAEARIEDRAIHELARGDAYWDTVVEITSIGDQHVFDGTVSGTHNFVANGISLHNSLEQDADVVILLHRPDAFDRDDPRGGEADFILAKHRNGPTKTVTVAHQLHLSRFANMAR

Protein RecA = target: T4, Protein RecA (Mycobacterium tuberculosis, UniProt P9WHJ3); experiment: Fluorescence Cell-Free Homogeneous Dose Retest to Identify Inhibitors of RecA-Intein Splicing Activity. [Related pubchem assays (depositor defined):AID2097, AID2223, AID489010, AID492950]; type: functional
T4 sequence (P9WHJ3 whole entry): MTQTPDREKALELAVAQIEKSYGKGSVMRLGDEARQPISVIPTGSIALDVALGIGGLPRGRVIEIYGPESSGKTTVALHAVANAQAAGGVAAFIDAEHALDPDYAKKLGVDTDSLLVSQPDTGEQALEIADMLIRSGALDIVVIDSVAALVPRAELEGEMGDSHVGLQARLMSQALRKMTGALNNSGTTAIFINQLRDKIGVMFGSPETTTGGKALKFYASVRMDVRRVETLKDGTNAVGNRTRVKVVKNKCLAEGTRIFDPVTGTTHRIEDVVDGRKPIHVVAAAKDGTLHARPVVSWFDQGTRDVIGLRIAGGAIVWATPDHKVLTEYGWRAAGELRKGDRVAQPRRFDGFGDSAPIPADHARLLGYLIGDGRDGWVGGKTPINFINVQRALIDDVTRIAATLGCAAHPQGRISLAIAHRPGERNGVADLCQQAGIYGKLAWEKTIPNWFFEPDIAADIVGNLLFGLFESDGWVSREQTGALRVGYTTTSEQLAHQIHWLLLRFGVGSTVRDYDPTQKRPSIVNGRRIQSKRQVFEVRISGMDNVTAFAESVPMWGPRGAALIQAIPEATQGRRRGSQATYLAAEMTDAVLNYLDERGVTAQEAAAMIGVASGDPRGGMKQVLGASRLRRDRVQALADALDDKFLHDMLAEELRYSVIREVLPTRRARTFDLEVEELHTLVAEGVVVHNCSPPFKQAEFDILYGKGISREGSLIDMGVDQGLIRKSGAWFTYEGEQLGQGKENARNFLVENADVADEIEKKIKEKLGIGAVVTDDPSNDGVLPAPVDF

Genome polyprotein = Genome polyprotein (dengue virus type 2, UniProt P29990); experiment: flavivirus cap methylation enzyme inhibition – biochemical, confirmation dose response, primary screen (AID 588689); type: functional
Chain of Genome polyprotein (P29990 2492-3391 limits assumed): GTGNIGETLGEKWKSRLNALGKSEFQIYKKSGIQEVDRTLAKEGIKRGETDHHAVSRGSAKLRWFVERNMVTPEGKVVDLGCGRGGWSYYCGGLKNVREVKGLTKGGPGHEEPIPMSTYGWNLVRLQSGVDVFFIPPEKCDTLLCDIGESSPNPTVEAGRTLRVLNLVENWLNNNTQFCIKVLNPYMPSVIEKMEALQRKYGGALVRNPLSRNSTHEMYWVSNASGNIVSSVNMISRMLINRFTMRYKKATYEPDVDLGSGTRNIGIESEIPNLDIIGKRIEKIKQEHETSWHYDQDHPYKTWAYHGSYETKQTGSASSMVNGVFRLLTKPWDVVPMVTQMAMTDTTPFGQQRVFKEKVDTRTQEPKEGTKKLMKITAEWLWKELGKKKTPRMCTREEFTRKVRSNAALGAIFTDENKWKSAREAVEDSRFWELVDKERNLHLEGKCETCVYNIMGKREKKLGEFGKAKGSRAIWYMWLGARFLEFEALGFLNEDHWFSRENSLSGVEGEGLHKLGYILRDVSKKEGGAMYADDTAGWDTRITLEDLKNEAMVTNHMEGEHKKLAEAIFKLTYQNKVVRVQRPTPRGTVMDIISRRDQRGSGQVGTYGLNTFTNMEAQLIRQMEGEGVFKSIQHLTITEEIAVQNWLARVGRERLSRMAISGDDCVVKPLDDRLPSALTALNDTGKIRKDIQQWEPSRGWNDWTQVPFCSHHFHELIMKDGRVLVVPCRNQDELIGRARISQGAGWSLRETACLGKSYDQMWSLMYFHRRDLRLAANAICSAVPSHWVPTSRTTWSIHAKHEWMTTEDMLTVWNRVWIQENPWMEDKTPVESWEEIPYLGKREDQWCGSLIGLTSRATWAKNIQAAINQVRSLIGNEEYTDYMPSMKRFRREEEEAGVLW

[10] = target: Neurotensin receptor type 1 (Homo sapiens, UniProt P30989); type: functional;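 note: Image-based confirmatory dose-response assay measuring agonist activity at NTR1; NTR1-expressing U2OS osteosarcoma cells imaged for beta-arrestin GFP spot formation; agonist potency where compounds increase beta-arrestin recruitment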
Chain of Neurotensin receptor type 1 (P30989 whole entry): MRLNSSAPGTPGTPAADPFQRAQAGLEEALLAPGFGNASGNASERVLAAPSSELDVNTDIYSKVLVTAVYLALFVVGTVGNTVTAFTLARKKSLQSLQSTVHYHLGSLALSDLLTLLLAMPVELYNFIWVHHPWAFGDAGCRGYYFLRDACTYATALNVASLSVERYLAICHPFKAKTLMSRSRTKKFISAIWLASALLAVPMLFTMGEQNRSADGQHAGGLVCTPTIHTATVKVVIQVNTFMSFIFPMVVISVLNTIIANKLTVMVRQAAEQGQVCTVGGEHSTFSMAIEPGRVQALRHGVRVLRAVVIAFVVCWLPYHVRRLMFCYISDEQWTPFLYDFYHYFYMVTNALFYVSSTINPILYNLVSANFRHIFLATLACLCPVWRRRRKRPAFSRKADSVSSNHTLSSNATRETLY

[11] = target: Dual specificity protein phosphatase 3 (Homo sapiens, UniProt P51452); experiment: inhibition constants for human DUSP3 – biochemical, colorimetric, SAR follow-up (AID 2004)
Chain of Dual specificity protein phosphatase 3 (P51452 whole entry): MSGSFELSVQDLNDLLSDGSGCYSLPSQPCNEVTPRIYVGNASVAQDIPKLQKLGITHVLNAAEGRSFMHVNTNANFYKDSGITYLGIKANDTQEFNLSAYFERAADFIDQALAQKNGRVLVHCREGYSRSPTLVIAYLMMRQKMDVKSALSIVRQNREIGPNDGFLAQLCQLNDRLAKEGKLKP

[12] = target: DNA dC->dU-editing enzyme APOBEC-3A (Homo sapiens, UniProt P31941); experiment: A3A deaminase inhibition for selectivity – biochemical, dose response (AID 504722); type: functional
Chain of DNA dC->dU-editing enzyme APOBEC-3A (P31941 whole entry): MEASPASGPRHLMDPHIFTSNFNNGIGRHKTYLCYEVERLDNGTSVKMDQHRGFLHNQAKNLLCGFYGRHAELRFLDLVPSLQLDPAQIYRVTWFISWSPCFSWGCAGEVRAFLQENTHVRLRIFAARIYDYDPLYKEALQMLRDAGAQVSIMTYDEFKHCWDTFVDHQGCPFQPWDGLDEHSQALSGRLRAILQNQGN

[13] = target: DNA dC->dU-editing enzyme APOBEC-3G (Homo sapiens, UniProt Q9HC16); experiment: Dose Response confirmation of small molecule APOBEC3G DNA Deaminase Inhibitors via a fluorescence-based single-stranded DNA deaminase assay. [Related pubchem assays (depositor defined):AID493012, AID493028]; type: functional
Chain of DNA dC->dU-editing enzyme APOBEC-3G (Q9HC16 whole entry): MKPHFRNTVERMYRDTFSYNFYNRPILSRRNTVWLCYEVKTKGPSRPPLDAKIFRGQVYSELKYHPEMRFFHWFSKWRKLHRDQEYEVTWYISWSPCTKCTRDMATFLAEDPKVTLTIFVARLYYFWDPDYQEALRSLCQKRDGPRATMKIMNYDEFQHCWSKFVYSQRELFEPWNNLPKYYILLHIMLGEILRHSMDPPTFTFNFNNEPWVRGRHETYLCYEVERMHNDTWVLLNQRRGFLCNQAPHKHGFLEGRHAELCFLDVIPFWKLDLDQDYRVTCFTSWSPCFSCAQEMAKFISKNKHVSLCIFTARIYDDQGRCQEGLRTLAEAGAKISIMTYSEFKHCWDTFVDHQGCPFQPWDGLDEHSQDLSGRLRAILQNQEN

[14] = Trypanosoma cruzi growth suppression in host cells – NIH3T3 host cells, beta-gal luminescence, confirmation (AID 2044); type: functional, cell-based;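 note: intracellular parasites grown in NIH/3T3 mouse fibroblasts as host cells; luminescent beta-galactosidase reporter signal from transgenic T. cruzi replicating inside host cells; inhibitors lower the luminescence signal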
[15] = NIH3T3 cell viability loss – ATP luminescence, mouse fibroblasts, counter-screen, dose response (AID 2010); type: functional, cell-based;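 note: cells exposed to compound for about 90 hours before reading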
Coagulation factor XII = Coagulation factor XII (Homo sapiens, UniProt P00748); type: functional;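 note: activated factor XIIa alpha cleaving a fluorogenic AMC peptide substrate; inhibitor potency from loss of enzyme activity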
Large T antigen = Large T antigen (Simian virus 40, UniProt P03070); type: functional, Betapolyomavirus macacae;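 note: Confirmatory-stage PubChem screen for compounds that inhibit SV40 T antigen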
[16] = target: T5, Mannose-6-phosphate isomerase (Homo sapiens, UniProt P34949); experiment: phosphomannose isomerase inhibition – biochemical, fluorescence intensity, confirmation (AID 1535)
T5 sequence (P34949 whole entry): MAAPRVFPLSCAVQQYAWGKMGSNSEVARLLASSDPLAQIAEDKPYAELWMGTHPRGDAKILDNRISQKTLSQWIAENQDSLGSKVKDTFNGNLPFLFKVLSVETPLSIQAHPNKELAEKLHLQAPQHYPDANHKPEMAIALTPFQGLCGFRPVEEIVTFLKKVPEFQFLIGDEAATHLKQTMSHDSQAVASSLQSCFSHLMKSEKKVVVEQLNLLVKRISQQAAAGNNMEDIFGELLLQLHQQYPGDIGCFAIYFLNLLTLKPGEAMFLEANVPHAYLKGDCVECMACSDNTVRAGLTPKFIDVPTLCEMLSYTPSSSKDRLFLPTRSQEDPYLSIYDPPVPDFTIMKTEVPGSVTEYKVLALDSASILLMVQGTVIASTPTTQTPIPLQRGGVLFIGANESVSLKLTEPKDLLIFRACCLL

Phosphomannomutase 2 = target: T6, Phosphomannomutase 2 (Homo sapiens, UniProt O15305); experiment: Counter screen SAR assay for PMM2 inhibitors via a fluorescence intensity assay. [Related pubchem assays (depositor defined):AID1545, AID1574]
T6 sequence (O15305 whole entry): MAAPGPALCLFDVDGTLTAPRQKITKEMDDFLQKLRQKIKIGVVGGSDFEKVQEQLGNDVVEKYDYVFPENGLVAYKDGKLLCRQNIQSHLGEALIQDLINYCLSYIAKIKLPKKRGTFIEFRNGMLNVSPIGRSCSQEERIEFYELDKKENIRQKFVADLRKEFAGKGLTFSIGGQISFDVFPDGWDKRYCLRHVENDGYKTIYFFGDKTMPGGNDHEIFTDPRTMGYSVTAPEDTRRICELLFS

[17] = target: Mitochondrial peptide methionine sulfoxide reductase (Bos taurus, UniProt P54149); experiment: Absorbance-based biochemical high throughput dose response assay for activators of Methionine sulfoxide reductase A (MsrA).; type: functional
Chain of Mitochondrial peptide methionine sulfoxide reductase (P54149 whole entry): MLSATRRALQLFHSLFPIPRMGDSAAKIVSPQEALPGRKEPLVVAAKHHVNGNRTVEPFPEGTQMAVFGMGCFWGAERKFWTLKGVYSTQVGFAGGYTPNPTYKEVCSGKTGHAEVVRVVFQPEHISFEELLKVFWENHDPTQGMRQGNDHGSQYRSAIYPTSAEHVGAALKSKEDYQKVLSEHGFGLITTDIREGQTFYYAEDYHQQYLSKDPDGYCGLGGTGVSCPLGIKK

SMILES: C=C1C(=O)O[C@H]2C[C@@H](C)[C@@H]3C=CC(=O)[C@@]3(C)C[C@H]12 [AROMATICIN]
- EC50 [1]: 590 nM (not active)
- IC50 [2]: > 80 µM (inactive)
- Absolute IC50 (CHOP) [3]: 10 µM
- AC50 (INS1): 7.82 µM (active)

SMILES: O=C(c1cc(-c2cc(F)c(Cl)cc2Cl)n[nH]1)N1CCCC1
- IC50 [4]: > 100 µM (not active)
- IC50 [5]: > 100 µM (inactive)
- IC50 [6]: > 100 µM (inactive)

SMILES: Cc1nc(COC(=O)c2cc(O)c3ccccc3c2O)cs1
- IC50 [7]: 4.84 µM (active)
- IC50 [8]: > 80 µM (inactive)
- IC50 (Hexokinase HKDC1): 12.1 µM (active)
- AC50 [9]: 24.7 µM (active)
- EC50 (Protein RecA): 5.24 µM (active)
- IC50 (Genome polyprotein): 43.1 µM (active)

SMILES: COc1ccc(C(=O)NN=C(S)NC2CCCCC2)cc1OC
- IC50 [5]: > 100 µM (inactive)

SMILES: Oc1ccc(/C=N/N2CCN(C3c4ccccc4-c4ccccc43)CC2)c(O)c1
- Absolute IC50 (CHOP) [3]: 10 µM

SMILES: C[C@H](NC(=O)c1nc[nH]c1C(=O)Nc1cccc(Cl)c1)c1ccccc1
- EC50 [10]: 24 µM (inactive)

SMILES: S=C(S)N(CCN(Cc1cccs1)C(=S)S)Cc1cccs1
- Ki [11]: 36.3 µM (inactive)

SMILES: CC1(C)c2ssc(=S)c2-c2ccccc2N1C(=O)CN1CCOCC1
- Ki [11]: 40.5 µM (inactive)

SMILES: O=S(=O)(Nc1cnc2ccccc2c1)c1ccccc1OC(F)(F)F
- IC50 [4]: > 100 µM (not active)
- IC50 [6]: 16.4 µM (active)

SMILES: Sc1nncn1/N=C/c1ccc(Br)cc1
- IC50 [12]: > 100 µM (inactive)
- IC50 [13]: 2.72 µM (active)

SMILES: COc1ccc(CN2CCN(C(=O)C3CCC(CNS(=O)(=O)c4ccccc4)CC3)CC2)c(OC)c1OC (stereo unspecified)
- EC50 [14]: 503 nM (active)
- EC50 [15]: > 60 µM (not active)
- IC50 (Coagulation factor XII): > 50 µM (inactive)

SMILES: COc1cc(-c2n[nH]c(=S)[nH]2)cc(OC)c1OC
- IC50 (Large T antigen): 8.6 µM (active)
- IC50 [16]: 38.9 µM (active)
- IC50 [12]: > 100 µM (inactive)
- IC50 (Phosphomannomutase 2): > 100 µM (inactive)
- IC50 [13]: 3.13 µM (active)
- EC50 [17]: > 104 µM (inactive)
